Measured values reported in patent publication US20040022866A1, “Pharmaceutical compositions with antibiotic activity” (ZAMBON GROUP S.P.A., priority 2002, published 2004).

Test: DSC measurement of the heat of the degradation reaction of FT
Assay type: physicochemical
Settings: scanning 10° C./min., mechanic mixture FT 0.02 moles + stabilizer 0.01 moles, 0.05% of water with respect to FT, reduced heat = higher stabilization
Experimental: The stabilization of FT from the selected stabilizers was evaluated experimentally with the DSC technology.
A mechanic mixture of FT (0.02 moles) with each of the stabilizers (0.01 moles) was admixed with 0.05% of water with respect to FT.
The DCS technology used for each mixture (scanning 10° C./min.) allow to measure the reaction heat which develops after the melting peak of FT, due to the degradation reaction.
A reduced heat development indicates a higher stabilization, the amount of FT being the same.

C[C@@H]1O[C@@H]1P(=O)(O)O.NC(CO)(CO)CO [FT (single substance), Fosfomycin Tromethamol]
reaction heat which develops after the melting peak of FT, due to the degradation reaction: 271.03 ± 16.73 (J/g)
